The values that follow are results of earlier work, collected in publication PMC9001717, “Tyrosine 121 moves revealing a ligandable pocket that couples catalysis to ATP-binding in serine racemase” (Communications Biology, 2022).

B1: GRIP: glutamate receptor-interacting protein (protein, UniProt Q9Y3R0 1-1128, looked up)
Glutamate …: MIAVSFKCRCQILRRLTKDESPYTKSASQTKPPDGALAVRRQSIPEEFKGSTVVELMKKEGTTLGLTVSGGIDKDGKPRVSNLRQGGIAARSDQLDVGDYIKAVNGINLAKFRHDEIISLLKNVGERVVLEVEYELPPVSVQGSSVIFRTVEVTLHKEGNTFGFVIRGGAHDDRNKSRPVVITCVRPGGPADREGTIKPGDRLLSVDGIRLLGTTHAEAMSILKQCGQEAALLIEYDVSVMDSVATASGPLLVEVAKTPGASLGVALTTSMCCNKQVIVIDKIKSASIADRCGALHVGDHILSIDGTSMEYCTLAEATQFLANTTDQVKLEILPHHQTRLALKGPDHVKIQRSDRQLTWDSWASNHSSLHTNHHYNTYHPDHCRVPALTFPKAPPPNSPPALVSSSFSPTSMSAYSLSSLNMGTLPRSLYSTSPRGTMMRRRLKKKDFKSSLSLASSTVGLAGQVVHTETTEVVLTADPVTGFGIQLQGSVFATETLSSPPLISYIEADSPAERCGVLQIGDRVMAINGIPTEDSTFEEASQLLRDSSITSKVTLEIEFDVAESVIPSSGTFHVKLPKKHNVELGITISSPSSRKPGDPLVISDIKKGSVAHRTGTLELGDKLLAIDNIRLDNCSMEDAVQILQQCEDLVKLKIRKDEDNSDEQESSGAIIYTVELKRYGGPLGITISGTEEPFDPIIISSLTKGGLAERTGAIHIGDRILAINSSSLKGKPLSEAIHLLQMAGETVTLKIKKQTDAQSASSPKKFPISSHLSDLGDVEEDSSPAQKPGKLSDMYPSTVPSVDSAVDSWDGSAIDTSYGTQGTSFQASGYNFNTYDWRSPKQRGSLSPVTKPRSQTYPDVGLSYEDWDRSTASGFAGAADSAETEQEENFWSQALEDLETCGQSGILRELEEKADRRVSLRNMTLLATIMSGSTMSLNHEAPTPRSQLGRQASFQERSSSRPHYSQTTRSNTLPSDVGRKSVTLRKMKQEIKEIMSPTPVELHKVTLYKDSDMEDFGFSVADGLLEKGVYVKNIRPAGPGDLGGLKPYDRLLQVNHVRTRDFDCCLVVPLIAESGNKLDLVISRNPLASQKSIDQQSLPGDWSEQNSAFFQQPSHGGNLETREPTNTL
B2: PICK1: protein interacting with C-kinase (protein, UniProt Q9NRD5 1-415, looked up)
PRKCA-binding protein: MFADLDYDIEEDKLGIPTVPGKVTLQKDAQNLIGISIGGGAQYCPCLYIVQVFDNTPAALDGTVAAGDEITGVNGRSIKGKTKVEVAKMIQEVKGEVTIHYNKLQADPKQGMSLDIVLKKVKHRLVENMSSGTADALGLSRAILCNDGLVKRLEELERTAELYKGMTEHTKNLLRAFYELSQTHRAFGDVFSVIGVREPQPAASEAFVKFADAHRSIEKFGIRLLKTIKPMLTDLNTYLNKAIPDTRLTIKKYLDVKFEYLSYCLKVKEMDDEEYSCIALGEPLYRVSTGNYEYRLILRCRQEARARFSQMRKDVLEKMELLDQKHVQDIVFQLQRLVSTMSKYYNDCYAVLRDADVFPIEVDLAHTTLAYGLNQEEFTDGEEEEEEEDTAAGEPSRDTRGAAGPLDKGGSWCDS

This data set deals with SR. Set-up: method as in supplementary refs 2, 11-32. The following applies: literature summary; ref supplementary refs 2, 11-32; cited from earlier work.
Turning to `NC(C(=O)O)C(=O)O` [2-aminomalonate], the Inhibition mode result is recorded as “Competitive”. Regarding `O=C(O)C1CC1C(=O)O` (stereo not shown) [1,2-cyclopropanedicarboxylic acid], the Inhibition mode entry is “Competitive”.

As to `O=C(O)CCC(=O)O` [Succinic], the Inhibition mode result is reported as “Competitive”. `O=C(O)C(CO)(CO)C(=O)O` [2,2-bis(hydroxymethyl)malonate]: the Inhibition mode entry is listed as “Competitive”. On to “phosphatidylinositol 4,5-bisphosphate [PIP2]”, for which the Inhibition mode result is listed as “Inhibition (noncompetitive)”. `O=C(O)C[C@H](O)C(=O)O` [L-malic]: the Inhibition mode entry is given as “Competitive”. As to `N[C@@H](CSS(=O)(=O)O)C(=O)O` [L-cysteine-S-sulfate], the Inhibition mode result is recorded as “Competitive”. With `N[C@@H](CCl)C(=O)O` [β-chloro-L-alanine], the Inhibition mode entry is given as “Competitive”. Take `NC(CCS(=O)(=O)O)C(=O)O` (stereo not shown) [Homocysteic acid]: the Inhibition mode entry is “Competitive”.

For the molecule `NC(CO)(CO)C(=O)O` [α-(hydroxymethyl)serine], the Inhibition mode entry is on record as “Substrate-product inhibition”.

With `O=C(O)/C=C\C(=O)O` [Maleic], the Inhibition mode result was “Competitive”. `NC(=O)C[C@H](N)C(=O)O` [L-asparagine]: the Inhibition mode result is reported as “Competitive”. For the molecule `N[C@@H](COS(=O)(=O)O)C(=O)O` [L-serine-O-sulfate], the Inhibition mode result is given as “Competitive”. Turning to `O=C(O)C(F)C(=O)O` [2-fluoromalonate], the Inhibition mode entry is on record as “Competitive”.

In the case of `N[C@@H](CC(=O)O)C(=O)O` [L-aspartate], the Inhibition mode result is reported as “Competitive”. Consider `O=C(O)C(O)C(=O)O` [2-hydroxymalonate], for which the Inhibition mode entry is listed as “Competitive”. Regarding `O=C(O)C(O)C(O)C(=O)O` (stereo not shown) [Tartaric], the Inhibition mode entry is “Competitive”. For the molecule `O=C(O)CC(=O)C(=O)O` [Oxaloacetic acid], the Inhibition mode result is “Product inhibition”. In the case of `O=C(O)C(Cl)(Cl)C(=O)O` [2,2-dichloromalonate], the Inhibition mode entry is “Competitive”. Consider `O=C(O)/C(O)=C(\O)C(=O)O` [Dihydroxyfumaric], for which the Inhibition mode result is “Competitive”.

With B1, the Inhibition mode result is given as “Activation; binds to SR”. Turning to B2, the Inhibition mode result is “Inhibition; binds to SR”.
